# Source: patent US20080102451A1, “Companion diagnostic assays for endothelin receptor antagonists” (Abbott Laboratories, priority 2006, published 2008)
# Tests used:
# [1] = system: Mouse MC3T3 pre-osteoblastic cells; assay: Microarray analysis of gene expression in ET-treated mouse osteoblasts; type: cell-based; details: for # Genes Blocked by ABT-627 (of genes down-regulated by ET) / # Genes Blocked by ABT-627 (of genes induced by ET): drug added 1 hour prior to ET
# Description: (§1) Mouse MC3T3 pre-osteoblastic cells (subclone 4) were purchased from ATCC (Manassis, Va.) and propagated in αMEM media without ascorbic acid (Invitrogen, Carlsbad, Calif.) supplemented with 10% FBS (Invitrogen). Human Mesenchymal Stem Cells (MSCs) were purchased from Cambrex (Walkersville, Md.) and propagated according in MSCGM™ media (Cambrex). To initiate differentiation of the MSC into human osteoblasts, the growth media was replaced by osteogenic differentiation medium (OGM, Cambrex).
# (§2) Mouse preosteoblastic MC3T3 cells as well as primary human osteoblasts were treated with ET, from Sigma (St. Louis, Mo.), for 2, 4, and 6 hours in the absence or presence of the ETa receptor antagonist ABT-627, from Abbott Laboratories (Abbott Park, Ill.). The drug was added 1 hour prior to the addition of ET.
# (§3) Total RNA was extracted from the treated cell lines and purified on RNeasy columns (Qiagen, Valencia, Calif.). Labeled cRNA was prepared according to the microarray manufacturer Affymetrix's protocol and hybridized to either mouse 430A 2.0 or human U133A 2.0 arrays (Affymetrix, Santa Clara, Calif.). Gene expression fold changes for each treatment were calculated by combining three biological replicates for each treatment using the Rosetta Resolver's Affymetrix error model software and building a ratio from the resulting values. All genes regulated ≧1.5-fold with a p-value of ≦0.01 were retained for further analysis. Conventional two-dimensional clustering was then performed by using the agglomerative hierarchical clustering algorithm. The Euclidean distance was used as the similarity metric.
# [2] = system: metastatic hormone-refractory prostate cancer; details: patients with metastatic hormone-refractory prostate cancer; Nelson et al. 2003; cited from earlier work
# IL-6 = assay: ELISA for IL-6 secreted by MC3T3 osteoblast cells; type: cell-based, mouse; details: MC3T3 cell line
# Description: as §1, §2
# (§4) Mouse MC3T3 osteoblast cells were propagated as set out above, and at times indicated were harvested and spun at 250×g for 10 minutes at room temperature. The clarified supernatants were aliquoted and frozen until analyzed. 200 microliters of each sample was tested in quadruplicate by commercially available ELISA assay kits for PAI-1 (Molecular Innovations, Southfield, Mich.), OPG (Biomedica, San Diego, Calif.) and IL-6 (Ray Biotech, Norcross, Ga.). The ELISA tests were performed according to the manufacturer's instructions. […]
# PAI-1 = assay: ELISA for PAI-1 secreted by MC3T3 osteoblast cells; type: cell-based, mouse; details: MC3T3 cell line
# Description: as §1, §2, §4
# OPG = assay: ELISA for OPG secreted by MC3T3 osteoblast cells; type: cell-based, mouse; details: MC3T3 cell line
# Description: as §1, §2, §4
# osteoblastic metastases = details: mice injected with ET-1-secreting breast cancer cell lines; Yin et al. 2003; cited from earlier work
# [3] = system: primary human osteoblasts; assay: Microarray analysis of gene expression in ET-treated primary human osteoblasts; type: cell-based; details: ET-1 treatment
# Description: as §1, §2
# as §3, with “All genes regulated ≧1.5-fold with a p-value of ≦0.01 were retained for further analysis. Conventional two-dimensional clustering was then performed by using the agglomerative hierarchical clustering algorithm. The Euclidean distance was used as the similarity metric.” left out
# [4] = endothelin in the presence of ABT-627
# [5] = mouse osteoblasts, time point 4 hr
# [6] = mouse osteoblasts, time point 6 hr
compound,measurement,setting,value
"CCCCN(CCCC)C(=O)CN1C[C@H](c2ccc3c(c2)OCO3)[C@@H](C(=O)O)[C@@H]1c1ccc(OC)cc1 [ABT-627, (2R,3R,4S)-(+)-2-(4-Methoxyphenyl)-4-(1,3-benzodioxol-5-yl)-1-(N,N-di(n-butyl)aminocarbonylmethyl)-pyrrolidine-3-carboxylic acid]","Induction by ET-1 of osteoblastic maturation genes (OPG, COX-2, Dmp1, Tgfbi, CTGF, Klf10)","[1]; osteoblastic cells, pre-treatment with ABT-627",blocked
same,"Induction by ET of apoptosis suppression genes (Nur77, Flt1, NFATc1)","[1]; osteoblastic cells, with ABT-627",the induction was blocked
same,Genes Blocked by ABT-627 as percent of genes induced by ET,[1]; time point 2 hr,(96%)
same,# Genes Blocked by ABT-627 (of genes down-regulated by ET),[1]; time point 2 hr,403
same,# Genes Blocked by ABT-627 (of genes induced by ET),[1]; time point 2 hr,581
same,Genes Blocked by ABT-627 as percent of genes induced by ET,[1]; time point 4 hr,(83%)
same,# Genes Blocked by ABT-627 (of genes down-regulated by ET),[1]; time point 4 hr,262
same,# Genes Blocked by ABT-627 (of genes induced by ET),[1]; time point 4 hr,390
same,Genes Blocked by ABT-627 as percent of genes induced by ET,[1]; time point 6 hr,(97%)
same,# Genes Blocked by ABT-627 (of genes down-regulated by ET),[1]; time point 6 hr,93
same,# Genes Blocked by ABT-627 (of genes induced by ET),[1]; time point 6 hr,189
same,Effect of pre-treatment on ET gene induction events,"[1]; two-dimensional hierarchical clustering, all three timepoints",abrogated almost all of these gene induction events
same,Gene expression changes caused by the antagonist alone,[1]; without ET,very few gene expression changes
same,Time to disease progression,[2],extended time to disease progression
same,Endothelin-induced expression of IL-6 (ELISA),IL-6; [4],substantial suppression
same,Endothelin-induced expression of PAI-1 (ELISA),PAI-1; [4],substantial suppression
same,Endothelin-induced expression of OPG (ELISA),OPG; [4],substantial suppression
same,Metastatic growth,osteoblastic metastases,suppressed the metastatic growth
CC[C@H](C)[C@H](NC(=O)[C@H](CC(=O)O)NC(=O)[C@H](CC(C)C)NC(=O)[C@H](Cc1c[nH]cn1)NC(=O)[C@@H]1CSSC[C@H](N)C(=O)N[C@@H](CO)C(=O)N[C@H]2CSSC[C@H](NC(=O)[C@H](CCC(=O)O)NC(=O)[C@H](CCCCN)NC(=O)[C@H](CC(=O)O)NC(=O)[C@H](CCSC)NC(=O)[C@H](CC(C)C)NC(=O)[C@H](CO)NC(=O)[C@H](CO)NC2=O)C(=O)N[C@@H](C(C)C)C(=O)N[C@@H](Cc2ccc(O)cc2)C(=O)N[C@@H](Cc2ccccc2)C(=O)N1)C(=O)N[C@H](C(=O)N[C@@H](Cc1c[nH]c2ccccc12)C(=O)O)[C@@H](C)CC [ET],"Expression of genes coding for secreted proteins (PAI-1, uPA, TGFbeta2, IL-6, IL-8)","[1]; mouse osteoblasts, ET-1 treatment",strongly upregulated
same,# Genes Down-regulated by ET,"[1]; mouse osteoblasts, time point 2 hr",423
same,# Genes Induced by ET,"[1]; mouse osteoblasts, time point 2 hr, regulated >=1.5-fold, p<=0.01",608
same,# Genes Down-regulated by ET,[1]; [5],295
same,# Genes Induced by ET,[1]; [5],472
same,# Genes Down-regulated by ET,[1]; [6],95
same,# Genes Induced by ET,[1]; [6],194
same,"Expression of apoptosis suppression genes (Nur77, Flt1, NFATc1)","[1]; osteoblastic cells, ET treatment",induced
same,Expression of IL-6 (ELISA),IL-6; treatment with endothelin,strongly induced
same,"Expression of genes coding for secreted proteins (PAI-1, uPA, TGFbeta2, IL-6, IL-8)",[3],strongly upregulated
same,Expression of PAI-1 (ELISA),PAI-1; treatment with endothelin,strongly induced
same,Expression of OPG (ELISA),OPG; treatment with endothelin,strongly induced
